According to US9295671B2, “Benzenesulfonamide derivatives of quinoxaline, pharmaceutical compositions thereof, and their use in methods for treating cancer” (NEUPHARMA, INC., priority 2011, dated 2016):

How the values were obtained:
[1] = molecular target: T1, BRAF (Homo sapiens, UniProt P15056); test: LanthaScreen kinase assay, BRAF; assay type: biochemical; conditions: ATP 1 μM
T1 construct: purchased Invitrogen
Protocol: (§1) The inhibitory activities of compounds against BRAF or BRAF V600E protein were measured using Invitrogne's LanthaScreen™ kinase assay which is based on fluorescein-labeled MAP2K1 as a substrate. The assay procedure is described as follows.
(§2) The scale utilized in Table 3 is as follows: ++++ less than 50 nM; +++ between 50 and 100 nM; ++ between 100 nM and 1 μM; and + greater than 1 μM.

[2] = molecular target: T2, BRAF V600E (Homo sapiens, UniProt P15056, V600E); test: Z′-LYTE kinase assay, BRAF V600E (Invitrogen); assay type: biochemical; conditions: Z′-LYTE method
T2 construct: purchased Invitrogen
Protocol: (§3) Inhibitory activities of compounds against BRAF or BRAF V600E were measured by Invitrogen using Z′-LYTE® Method as briefly described in the following.
(§4) 4× Test compounds are dissolved in 1% DMSO. […] ATP solutions are diluted to a 4×ATP working concentration in Kinase Buffer (50 mM HEPES pH 7.5, 0.01% BRIJ-35, 10 mM MgCl2, 1 mM EGTA).
(§5) Reaction starts by 30-second shaking of mixture consisting of 2.5 μL4× test compound, […] and 2.5 μL 4×ATP Solution on Bar-coded Corning, low volume NBS, black 384-well plate (Corning Cat. #3676). Then the mixture is incubated for 60-minute at room temperature for the kinase reaction, followed by addition of 5 μL of a 1:1024 dilution of development reagent A and 30-second plate shake. The mixture is then incubated for another 60-minute at room temperature for development reaction. Finally fluorescence is read by plate reader.

[3] = system: A549 cells; test: Inhibition of cancer cell growth, MTT assay, A549; assay type: cell-based; conditions: Homo sapiens, 72 h
Protocol: (§6) Inhibition of cell growth by compounds was measured using MTT assay (Mosmann, T., Journal of Immunological Methods, 1983, 65, 55-63). Tumor cell lines were purchased from ATCC (American Type Culture Collection, Manassas, Va.). All cell lines were maintained in RPMI 1640 (Hyclone) supplemented with 10% fetal bovine serum (FBS, Hyclone), glutamine (2 mM, Hyclone), and antibiotics (penicillin 100 U/mL and streptomycin 50 μg/mL) at 37° C. in a humidified atmosphere of 5% CO2 in air. Taxol (as a positive control, Sigma) and compounds were dissolved in DMSO (Sigma), and the final concentration of DMSO in the medium was 1%. Tumor cells were plated in 96-well plates at densities of about 4000 cells/well of a 96-well plate and allowed to adhere/grow for 24 h. They were then treated with various concentrations of drug for 72 h. 3-(4,5-Dimethylthiazol-2-yl)-2,5-diphenyltetrazolium bromide (MTT, Sigma) was used to determine the number of viable cells at the time of compound addition and the number of cells remaining after 72 h compound exposure. The number of cells remaining after 72 h was compared to the number of viable cells at the time of compound addition by measuring the absorbance at 570 nm, allowing for the calculation of growth inhibition.
(§7) All concentrations of compounds were tested in triplicate and controls were averaged over 4 wells. IC50 was calculated by plotting the concentration of compound vs the percentage of inhibition in treated wells using GraphPad Prism 5.
(§8) The scale utilized in Table 4 is as follows: +++ less than 500 nM; ++ between 500 nM and 1 μM; and + greater than 1 μM.

[4] = molecular target: T2, BRAF V600E; test: LanthaScreen kinase assay, BRAF V600E; assay type: biochemical; conditions: ATP 10 μM
Protocol: as §1, §2

[5] = system: A375 cells; test: Inhibition of cancer cell growth, MTT assay, A375; assay type: cell-based; conditions: Homo sapiens, A-375, 72 h (Table 4)
Protocol: as §6, §7, §8

[6] = molecular target: T1, BRAF; test: Z′-LYTE kinase assay, BRAF (Invitrogen); assay type: biochemical; conditions: Z′-LYTE method
Protocol: as §3, §4, §5

[7] = system: A375 (human melanoma cell, BRAF V600E Mutant); test: Inhibition of cancer cell growth, MTT or MTS assay, A375; assay type: cell-based; conditions: A-375, 72 h, highest concentration 10 μM (Table 5)
Protocol: (§9) A375 (human melanoma cell, BRAF V600E Mutant), CHL-1 (human melanoma cell, BRAF wild type), SK-MEL-28 (human melanoma cell, BRAF V600E Mutant) and SK-MEL-31(human melanoma cell, Braf WT Mutant) were purchased from ATCC (American Type Culture Collection, Manassas, Va.). All cell lines were maintained in RPMI 1640 (Hyclone) or DMEM (Hyclone) supplemented with 10% fetal bovine serum (FBS, Hyclone), glutamine (2 mM, Hyclone), and antibiotics (penicillin 100 U/mL and streptomycin 50 μg/mL) at 37° C. in a humidified atmosphere of 5% CO2 in air.
(§10) To test IC50 of inhibition of individual compounds against each cell line, A375, SK-MEL-28and SK-MEL-31 cells were first plated in 96-well plates at densities of 3000 cells/well, and CHL-1 2500 cells/well. Cells were then incubated to allow cells to adhere and grow for 24 h. Cells were then treated with a series of concentrations of compounds for 72 h. The highest concentration of compounds was 10 μM for A375 and SK-MEL-28 cells and 100 μM for CHL-1 and SK-MEL-31 cells. Cells were then removed from the incubator and medium was removed by inverting and tapping the plates. 100 μL of MTT (0.5 mg/ml) or 10 μL or MTS was added to each well followed by an incubated at 37° C. for 4 h. Then MTT was removed and 200 μL of DMSO was added to each well, followed by reading the ODs at 570 nm after a 5 second shaking cycle in a 96-well spectrophotometer. For MTS method, MTS was not removed, and the incubated solutions were directly put in a 96-well spectrophotometer for the reading of the ODs at 492 nm.
(§11) IC50 was calculated by plotting the concentration of compound vs the percentage of inhibition in treated wells using GraphPad Prism 5. […] The scale utilized in Table 5 is as follows: +++ less than 500 nM; ++ between 500 nM and 1 μM; and + greater than 1 μM.

[8] = system: CHL-1 (human melanoma cell, BRAF wild type); test: Inhibition of cancer cell growth, MTT or MTS assay, CHL-1; assay type: cell-based; conditions: 72 h, highest concentration 100 μM
Protocol: as §9, §10, §11

[9] = system: SK-MEL-31 (human melanoma cell, Braf WT Mutant); test: Inhibition of cancer cell growth, MTT or MTS assay, SK-MEL-31; assay type: cell-based; conditions: 72 h, highest concentration 100 μM
Protocol: as §9, §10, §11

[10] = system: SK-MEL-28 (human melanoma cell, BRAF V600E Mutant); test: Inhibition of cancer cell growth, MTT or MTS assay, SK-MEL-28; assay type: cell-based; conditions: 72 h, highest concentration 10 μM
Protocol: as §9, §10, §11

T2 sequence (P15056 whole entry V600E): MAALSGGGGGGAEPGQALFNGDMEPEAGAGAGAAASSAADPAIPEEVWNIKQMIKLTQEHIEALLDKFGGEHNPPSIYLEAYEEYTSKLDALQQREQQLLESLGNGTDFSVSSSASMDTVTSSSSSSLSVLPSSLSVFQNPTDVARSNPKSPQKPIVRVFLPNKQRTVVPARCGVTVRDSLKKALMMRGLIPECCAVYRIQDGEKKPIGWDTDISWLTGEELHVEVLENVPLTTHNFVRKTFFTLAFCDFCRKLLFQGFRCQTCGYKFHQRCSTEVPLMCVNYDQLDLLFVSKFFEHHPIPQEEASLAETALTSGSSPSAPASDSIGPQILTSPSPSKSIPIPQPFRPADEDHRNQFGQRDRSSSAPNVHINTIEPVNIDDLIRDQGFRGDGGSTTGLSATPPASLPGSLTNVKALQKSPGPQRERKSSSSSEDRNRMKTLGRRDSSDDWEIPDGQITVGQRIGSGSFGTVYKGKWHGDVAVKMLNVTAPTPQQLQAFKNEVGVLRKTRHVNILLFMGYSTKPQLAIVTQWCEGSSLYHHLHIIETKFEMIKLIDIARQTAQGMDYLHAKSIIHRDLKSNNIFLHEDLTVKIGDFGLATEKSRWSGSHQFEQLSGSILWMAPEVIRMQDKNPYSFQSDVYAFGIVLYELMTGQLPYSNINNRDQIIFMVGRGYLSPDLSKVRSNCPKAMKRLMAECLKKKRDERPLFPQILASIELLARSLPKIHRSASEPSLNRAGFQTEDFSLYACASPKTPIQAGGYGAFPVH
T1 sequence (P15056 whole entry): as the sequence (P15056 whole entry V600E) above, with E600V counted along it

Row | SMILES | IC50 [1] | inhibition at 1 µM [2] | IC50 [3] | IC50 [4] | IC50 [5] | inhibition at 1 µM [6] | IC50 [7] | IC50 CHL-1 [8] | IC50 SK-MEL-31 [9] | IC50 [10]
1 | CCCS(=O)(=O)Nc1cc(F)c(F)c(C(=O)c2ccc3ncc(N4CCOCC4)nc3c2)c1 [Compound C37, N-(3,4-difluoro-5-(3-morpholinoquinoxaline-6-carbonyl)phenyl)propane-1-sulfonamide] | 100 to 1000 nM | 70 to 89% | > 1000 nM | 50 to 100 nM | > 1000 nM |  |  |  |  | 
2 | CCCS(=O)(=O)Nc1ccc(F)c(C(=O)c2ccc3ncc(N4CCOCC4)nc3c2)c1 [Compound C17, N-(4-fluoro-3-(3-morpholinoquinoxaline-6-carbonyl)phenyl)propane-1-sulfonamide] |  | < 70% | > 1000 nM |  | > 1000 nM |  |  |  |  | 
3 | CCCS(=O)(=O)Nc1cc(F)c(F)c(C(=O)c2ccc3ncc(OC)nc3c2)c1F [Compound C10, N-(2,4,5-trifluoro-3-(3-methoxyquinoxaline-6-carbonyl)phenyl)propane-1-sulfonamide] |  | 70 to 89% | > 1000 nM |  | < 500 nM | > 89% |  |  |  | 
4 | CCCS(=O)(=O)Nc1cc(F)c(F)c(C(=O)c2ccc3ncc(-c4ccc(Cl)cc4)nc3c2)c1F [Compound C12, N-(3-(3-(4-chlorophenyl)quinoxaline-6-carbonyl)-2,4,5-trifluorophenyl)propane-1-sulfonamide] |  | > 89% |  |  |  | 70 to 89% | < 500 nM | No inhibition | No inhibition | 500 to 1000 nM
5 | CCCS(=O)(=O)Nc1cc(F)c(F)c(C(=O)c2ccc3ncc(N(C)CCN(C)C)nc3c2)c1F [Compound C13, N-(3-(3-((2-(dimethylamino)ethyl)(methyl)amino)quinoxaline-6-carbonyl)-2,4,5-trifluorophenyl)propane-1-sulfonamide] |  | > 89% | > 1000 nM |  | > 1000 nM | > 89% |  |  |  | 
6 | CCCS(=O)(=O)Nc1ccc(F)c(C(=O)c2ccc3ncc(-c4ccc(Cl)cc4)nc3c2)c1F [Compound C02, N-(3-(3-(4-chlorophenyl)quinoxaline-6-carbonyl)-2,4-difluorophenyl)propane-1-sulfonamide] |  | > 89% | 500 to 1000 nM |  | 500 to 1000 nM | 70 to 89% |  |  |  | 
7 | CCCS(=O)(=O)Nc1cc(F)cc(C(=O)c2ccc3ncc(N4CCOCC4)nc3c2)c1 [Compound C18, N-(3-fluoro-5-(3-morpholinoquinoxaline-6-carbonyl)phenyl)propane-1-sulfonamide] | 50 to 100 nM | < 70% | > 1000 nM | < 50 nM | > 1000 nM |  |  |  |  | 
8 | CCCS(=O)(=O)Nc1cc(F)cc(C(=O)c2ccc3nccnc3c2)c1 [Compound C16, N-(3-fluoro-5-(quinoxaline-6-carbonyl)phenyl)propane-1-sulfonamide] |  | < 70% | > 1000 nM |  | > 1000 nM |  |  |  |  | 
9 | CCCS(=O)(=O)Nc1cc(F)c(F)c(C(=O)c2ccc3ncc(Cl)nc3c2)c1F [Compound C11, N-(3-(3-chloroquinoxaline-6-carbonyl)-2,4,5-trifluorophenyl)propane-1-sulfonamide] |  | > 89% | > 1000 nM |  | > 1000 nM | 70 to 89% |  |  |  | 

Further lines, results first:

Row | IC50 [1] | inhibition at 1 µM [2] | IC50 [3] | IC50 [4] | IC50 [5] | inhibition at 1 µM [6] | IC50 [7] | IC50 CHL-1 [8] | IC50 SK-MEL-31 [9] | IC50 [10] | SMILES
10 |  | < 70% | > 1000 nM |  | > 1000 nM |  |  |  |  |  | CCCS(=O)(=O)Nc1ccc(F)c(C(=O)c2ccc3nccnc3c2)c1 [Compound C15, N-(4-fluoro-3-(quinoxaline-6-carbonyl)phenyl)propane-1-sulfonamide]
11 |  | 70 to 89% | > 1000 nM |  | 500 to 1000 nM | < 70% |  |  |  |  | CCCS(=O)(=O)Nc1cc(F)c(F)c(C(=O)c2ccc3nccnc3c2)c1 [Compound C07, N-(3,4-difluoro-5-(quinoxaline-6-carbonyl)phenyl)propane-1-sulfonamide]
12 | 100 to 1000 nM | > 89% |  | < 50 nM |  | 70 to 89% | < 500 nM | No inhibition |  |  | CCCS(=O)(=O)Nc1ccc(F)c(C(=O)c2ccc3nccnc3c2)c1Cl [Compound C06, N-(2-chloro-4-fluoro-3-(quinoxaline-6-carbonyl)phenyl)propane-1-sulfonamide]
13 |  | < 70% | > 1000 nM |  | > 1000 nM | < 70% |  |  |  |  | CCCS(=O)(=O)Nc1cc(F)c(SC)c(C(=O)c2ccc3nccnc3c2)c1F [Compound C08, N-(2,5-difluoro-4-(methylthio)-3-(quinoxaline-6-carbonyl)phenyl)propane-1-sulfonamide]
14 |  | 70 to 89% | > 1000 nM |  | < 500 nM | > 89% |  |  |  |  | CCCS(=O)(=O)Nc1cc(F)c(F)c(C(=O)c2ccc3nccnc3c2)c1Cl [Compound C14, N-(2-chloro-4,5-difluoro-3-(quinoxaline-6-carbonyl)phenyl)propane-1-sulfonamide]
15 |  | > 89% | < 500 nM |  | 500 to 1000 nM | 70 to 89% |  |  |  |  | CCCS(=O)(=O)Nc1ccc(F)c(C(=O)c2ccc3ncc(C#N)nc3c2)c1F [Compound C05, N-(3-(3-cyanoquinoxaline-6-carbonyl)-2,4-difluorophenyl)propane-1-sulfonamide]
16 |  | > 89% | < 500 nM |  | < 500 nM | 70 to 89% |  |  |  |  | CCCS(=O)(=O)Nc1ccc(F)c(C(=O)c2ccc3nccnc3c2)c1F [Compound C01, N-(2,4-difluoro-3-(quinoxaline-6-carbonyl)phenyl)propane-1-sulfonamide]
17 |  | > 89% | > 1000 nM |  | > 1000 nM | 70 to 89% |  |  |  |  | CCCS(=O)(=O)Nc1ccc(F)c(C(=O)c2ccc3ncc(OC)nc3c2)c1F [Compound C03, N-(2,4-difluoro-3-(3-methoxyquinoxaline-6-carbonyl)phenyl)propane-1-sulfonamide]
